Test systems include A498 renal; NCI-H522 lung; RPMI-8226 leukemia; SF-268 CNS; SK-OV-3 ovarian; SNB-19 CNS; SR leukemia; SW-620 colon; UACC-257 melanoma; UO-31 renal.
Test in all cases: DTP human tumour cell line panel, 48 h

Values joined by “and” are separate entries in the source; they are usually repeats but may differ in a detail not shown here. Identical values can stand only once.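 A five-concentration, 48-hour dose response in 96-well plates underlies each endpoint, interpolated linearly between surrounding concentrations. GI50: concentration for 50% inhibition of growth. TGI: concentration producing complete growth inhibition.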

Turning to `Cc1cccc(Cc2cnc(NC(=O)CCCOc3ccc(Cl)cc3)s2)c1`, the GI50 with A498 renal is 1.36 µM; in the test on NCI-H522 lung, 51.1 µM; with RPMI-8226 leukemia, 4.23 µM; with SF-268 CNS, over 100 µM; in the test with SK-OV-3 ovarian, over 100 µM; in the test with SNB-19 CNS it was over 100 µM. The GI50 in the test on SR leukemia is 2.51 µM; in the test with SW-620 colon, 3.39 µM; in the test with UACC-257 melanoma, 7.41 µM; with UO-31 renal it was 4.52 µM. In addition, the total growth inhibition concentration (TGI) was 6.25 µM in the test on A498 renal; over 100 µM in the test with NCI-H522 lung; over 100 µM with RPMI-8226 leukemia; over 100 µM in the test on SF-268 CNS; over 100 µM with SK-OV-3 ovarian; over 100 µM in the test with SNB-19 CNS. Further, the TGI in the test with SR leukemia, in the test with SW-620 colon, with UACC-257 melanoma and with UO-31 renal was over 100 µM throughout.

As for `O=C(/C=C/N1CCN(c2cccc(Cl)c2)CC1)c1ccc(Cl)cc1`, the GI50 was 21.8 µM in the test with A498 renal; 18.9 µM with NCI-H522 lung; 18.3 µM with RPMI-8226 leukemia; 19.8 µM in the test with SF-268 CNS; 50.9 µM with SK-OV-3 ovarian; 64.9 µM in the test on SNB-19 CNS. The GI50 is 26.1 µM in the test with SR leukemia, 30 µM in the test on SW-620 colon, 23.8 µM in the test with UACC-257 melanoma and 31.5 µM with UO-31 renal. Moreover, the concentration for total growth inhibition (TGI) in the test with A498 renal is 48.1 µM; in the test with NCI-H522 lung it was 54.6 µM; with RPMI-8226 leukemia, 50.7 µM; with SF-268 CNS it was 53.2 µM; in the test with SK-OV-3 ovarian it was over 100 µM; in the test on SNB-19 CNS, over 100 µM. Moreover, the total growth inhibition concentration (TGI) in the test with SR leukemia was 59.3 µM; in the test with SW-620 colon, 99.3 µM; in the test on UACC-257 melanoma it was 63.5 µM; in the test on UO-31 renal, over 100 µM.

On to `CCOC(=O)c1c(/C=N\Nc2ccccc2)nc2ccccc2c1-c1ccccc1`, for which the TGI is over 100 µM in the test on A498 renal; 67.1 µM in the test with NCI-H522 lung; 83.8 µM in the test on RPMI-8226 leukemia; over 100 µM in the test on SF-268 CNS; over 100 µM in the test with SK-OV-3 ovarian; over 100 µM with SNB-19 CNS. Moreover, the total growth inhibition concentration (TGI) with SR leukemia was 61.4 µM; with SW-620 colon, over 100 µM; with UACC-257 melanoma, over 100 µM; with UO-31 renal, 98.7 µM.

On to `O=C(Nc1cccc(C(F)(F)F)c1)Nc1cc(S(=O)(=O)NC2CC2)ccc1-c1ccsc1`, for which the GI50 with A498 renal is 2.45 µM; in the test with NCI-H522 lung, 3.05 µM; in the test on RPMI-8226 leukemia, 2.57 µM; in the test on SF-268 CNS it was 5.95 µM; in the test on SK-OV-3 ovarian, 4.39 µM; in the test on SNB-19 CNS it was 2.99 µM. For the same molecule, the GI50 in the test on SR leukemia was 2.72 µM; in the test with SW-620 colon it was 4.45 µM; in the test on UACC-257 melanoma it was 3.84 µM; with UO-31 renal, 3.3 µM. Moreover, the concentration for total growth inhibition (TGI) in the test on A498 renal came out at 7.31 µM; with NCI-H522 lung, 13 µM; in the test with RPMI-8226 leukemia, 8.22 µM; in the test with SF-268 CNS, 21.3 µM; in the test with SK-OV-3 ovarian, 17 µM; in the test with SNB-19 CNS, 13 µM. In addition, the TGI in the test on SR leukemia stood at 8.92 µM; with SW-620 colon it was 18.5 µM; in the test on UACC-257 melanoma, 14.4 µM; in the test with UO-31 renal it was 13.3 µM.

For `COC(=O)/C(=C/c1ccc(OC)cc1)c1cc(OC)c(OC)c(OC)c1`, the total growth inhibition concentration (TGI) in the test on A498 renal is over 39 µM; with NCI-H522 lung it was 4.58 µM; with RPMI-8226 leukemia it was 69.5 µM; in the test on SF-268 CNS, over 79.1 µM; in the test with SK-OV-3 ovarian it was 40.4 µM; with SNB-19 CNS, 98 µM. Also, the TGI in the test with SR leukemia is over 19.6 µM; with SW-620 colon, over 100 µM; with UACC-257 melanoma, over 84.3 µM; with UO-31 renal, 74.9 µM.

With `Oc1ccc(/C=N/Nc2nnc(N/N=C/c3ccc(O)cc3O)c3ccccc23)c(O)c1`, the GI50 was 1.33 µM in the test with A498 renal; 0.253 µM in the test with NCI-H522 lung; 0.345 µM in the test with RPMI-8226 leukemia; 0.353 µM in the test on SF-268 CNS; 0.552 µM in the test with SK-OV-3 ovarian; 0.205 µM in the test with SR leukemia. Further, the results for the GI50 in the test on UACC-257 melanoma and in the test with UO-31 renal were 1.84 µM and 0.282 µM, respectively. The TGI in the test on A498 renal was 3.51 µM; in the test on NCI-H522 lung it was 0.799 µM; with RPMI-8226 leukemia, 0.533 µM and 1.77 µM; in the test on SK-OV-3 ovarian, 4.5 µM; in the test on SNB-19 CNS, 7.19 µM; with SR leukemia, 0.592 µM and 0.719 µM. The TGI with SW-620 colon came to 7.71 µM; in the test with UACC-257 melanoma, 7.73 µM; with UO-31 renal, 3.92 µM.

On to `COc1ccc(S(=O)(=O)NCCCNc2nccc(-c3c(-c4ccc(F)cc4)nc4sccn34)n2)cc1`, for which the GI50 is 1.21 µM in the test with A498 renal; 5.02 µM in the test with NCI-H522 lung; 6.25 µM with RPMI-8226 leukemia; 7.85 µM in the test on SF-268 CNS; 8.11 µM with SK-OV-3 ovarian; 40.2 µM in the test with SNB-19 CNS. For the same molecule, the GI50 with SR leukemia is 3.69 µM; with SW-620 colon it was 24 µM; with UACC-257 melanoma, 12.6 µM; in the test on UO-31 renal, 3.83 µM. Further, the concentration for total growth inhibition (TGI) in the test on A498 renal was 8.37 µM; in the test with NCI-H522 lung, over 100 µM; in the test on RPMI-8226 leukemia it was 58.2 µM; in the test on SF-268 CNS it was over 100 µM; in the test with SK-OV-3 ovarian it was over 100 µM; in the test with SNB-19 CNS, over 100 µM. The concentration for total growth inhibition (TGI) in the test on SR leukemia, with SW-620 colon, in the test with UACC-257 melanoma and in the test on UO-31 renal was over 100 µM each time.

A word on the GI50: it is the concentration at which growth is held to half of that of the control. For orientation: TGI means the concentration giving total growth inhibition. A high value points to less potent growth arrest.

The values are drawn from PubChem BioAssay (NCI).
